The source of these data is US9173394B2, “Active agent combinations having insecticidal and acaricidal properties” (BAYER INTELLECTUAL PROPERTY GMBH, priority 2007, dated 2015).

One assay deals with Phaedon cochleariae. The assay can be described thus: Phaedon cochleariae larvae test (Example B): sprayed cabbage leaves populated with mustard beetle larvae.
A further assay has as its system Spodoptera frugiperda. The assay can be described thus: Spodoptera frugiperda larvae test (Example C): sprayed cabbage leaves populated with army worm larvae. Format: in vivo. To be noted: for Destruction in % after 6 d: Table C second series. The text has this:
(§1) Solvent: 78 parts by weight of acetone

The test system of the next assay is Myzus persicae. Kind of assay: Myzus persicae test (Example A): spray treatment of infested cabbage leaves. It counts as in vivo.
Excerpt: as §1

The test system of a further assay is Tetranychus urticae. The assay can be described thus: Tetranychus urticae test (OP-resistant/spray treatment) (Example D): infested bean leaf discs. It counts as in vivo. As for the experimental part: as §1
Bean leaf discs (Phaseolus vulgaris) which are infested with all stages of the red spider mite (Tetranychus urticae) are sprayed with an active substance preparation of the desired concentration.
After the desired period of time, the effect is determined in %.

The mark [1] stands for this setting: Phaedon cochleariae, in Brassica oleracea, 144 h, read-out: Destruction in % after 6 d.
The mark [2] stands for this setting: Myzus persicae, 144 h, single active substance, 0.8 g/ha, after 6 d, read-out: Destruction in % after 6 d.
The mark [3] stands for this setting: Phaedon cochleariae, in Brassica oleracea, 144 h, read-out: Destruction in % after 6 d, 100 g/ha, after 6 d, Table B fourth series.
[4] abbreviates: Myzus persicae, 24 h, read-out: Destruction in % after 1 d.
Setting [5] is: 20 g/ha, after 6 d, Table B second series.
[6] abbreviates: single active substance, 0.16 g/ha, after 1 d.
Setting [7] is: Phaedon cochleariae, in Brassica oleracea, 144 h, read-out: Destruction in % after 6 d, 0.8 g/ha, after 6 d, Table B second series.
Setting [8] is: Phaedon cochleariae, in Brassica oleracea, 144 h, read-out: Destruction in % after 6 d, 4 g/ha, after 6 d, Table B second series.
[9] abbreviates: Myzus persicae, 144 h, read-out: Destruction in % after 6 d.

Like-named read-outs stand apart in the source and are kept apart here.

`N#Cc1ccc(CC(=NNC(=O)Nc2ccc(OC(F)(F)F)cc2)c2cccc(C(F)(F)F)c2)cc1` (mixture of isomers) [Metaflumizone, 2-[2-(4-cyanophenyl)-1-[3-(trifluoromethyl)-phenyl]ethylidene]-N-[4-(trifluoromethoxy)phenyl]hydrazinecarboxamide]: the pest or weed control at 100 g/ha in the assay on Phaedon cochleariae (setting [1]) amounted to 0%. The “Destruction in % after 6 d” value in the assay with Spodoptera frugiperda (20 g/ha) is on record as 0%; in the assay with Spodoptera frugiperda (100 g/ha) it was 83%. Besides, in the assay on Myzus persicae (setting [2]), the pest or weed control at 0.8 g/ha is 0%.

Consider `Nc1nc(N)nc(NC2CC2)n1` [Cyromazine, cyromazine], for which the pest or weed control at 20 g/ha with Phaedon cochleariae (Phaedon cochleariae, in Brassica oleracea, 144 h, read-out: Destruction in % after 6 d, 20 g/ha, after 6 d, Table B fourth series (r118-r181)) was 0%. Also, the pest or weed control at 100 g/ha in the assay on Phaedon cochleariae (setting [3]) was found to be 0%. Moreover, in the assay on Myzus persicae (setting [4]), the pest or weed control at 4 g/ha is 0%.

Turning to `N#CCNC(=O)c1cnccc1C(F)(F)F` [Flonicamid, flonicamid], the pest or weed control at 100 g/ha in the assay on Phaedon cochleariae (Phaedon cochleariae, in Brassica oleracea, 144 h, read-out: Destruction in % after 6 d, 100 g/ha, after 6 d, Table B second series (r19-r78)) was found to be 0%. For the same compound, in the assay on Myzus persicae (setting [4]), the pest or weed control at 0.8 g/ha amounted to 0%.

As for `COCCOC(=O)C(C#N)(C(=O)c1ccccc1C(F)(F)F)c1ccc(C(C)(C)C)cc1` (stereo not drawn) [Cyflumetofen, 2-methoxyethyl alpha-cyano-alpha-[4-(1,1,dimethylethyl)phenyl]-beta-oxo-2-(trifluoromethyl)benzenepropanoate], the pest or weed control at 100 g/ha in the assay with Phaedon cochleariae (setting [3]) stood at 0%. For the same compound, in the assay with Myzus persicae (setting [4]), the pest or weed control at 4 g/ha stood at 0%. Moreover, the “Destruction in % after 6 d” value in the assay on Tetranychus urticae (4 g/ha) is on record as 70%.

Regarding `O=C1C=C(N(CCF)Cc2ccc(Cl)nc2)CO1` [Compound (I-4), 4-{[(6-chloropyrid-3-yl)methyl](2-fluoroethyl)amino}furan-2(5H)-one], the “Destruction in % after 6 d” value in the assay on Phaedon cochleariae (setting [5]), in the assay with Spodoptera frugiperda (0.16 g/ha), in the assay with Spodoptera frugiperda (0.8 g/ha), in the assay with Spodoptera frugiperda (100 g/ha) and in the assay on Tetranychus urticae (4 g/ha) was 0% in each case. In addition, the “Destruction in % after 2 d” value in the assay on Phaedon cochleariae (100 g/ha, Table B third series) came out at 33%; in the assay on Spodoptera frugiperda (4 g/ha, Table C third series) it was 0%; in the assay with Spodoptera frugiperda (20 g/ha, Table C third series) it was 0%; in the assay on Tetranychus urticae (0.8 g/ha), 0%; in the assay with Tetranychus urticae (4 g/ha) it was 0%; with Tetranychus urticae (20 g/ha) it was 0%. In addition, the pest or weed control at 0.8 g/ha came out at 0% in the assay with Phaedon cochleariae (setting [1]); 0% with Myzus persicae (Myzus persicae, 24 h, single active substance, 0.8 g/ha, after 1 d, read-out: Destruction in % after 1 d); 0% in the assay on Myzus persicae (setting [2]). Further, the pest or weed control at 20 g/ha in the assay on Phaedon cochleariae (setting [1]) stood at 0%. Also, the pest or weed control at 100 g/ha with Phaedon cochleariae (setting [1]) amounted to 33%. The pest or weed control at 4 g/ha in the assay on Myzus persicae (Myzus persicae, 24 h, single active substance, 4 g/ha, after 1 d, read-out: Destruction in % after 1 d) came out at 30%; in the assay on Myzus persicae (Myzus persicae, 144 h, single active substance, 4 g/ha, after 6 d, read-out: Destruction in % after 6 d), 60%.

Take emamectin-benzoate: the “Destruction in % after 2 d” value came to 0% with Phaedon cochleariae (0.032 g/ha, Table B first series) and 50% with Spodoptera frugiperda (0.8 g/ha, Table C first series). In addition, in the assay with Myzus persicae (setting [6]), the “Destruction in % after 1 d” value came to 0%.

Turning to `CC[S+]([O-])c1c(C#N)nn(-c2c(Cl)cc(C(F)(F)F)cc2Cl)c1N` (stereo not shown) [Ethiprole, ethiprole], the pest or weed control at 0.8 g/ha in the assay with Phaedon cochleariae (setting [7]) came out at 33%. For the same compound, the pest or weed control at 4 g/ha came to 67% with Phaedon cochleariae (setting [8]), 0% in the assay with Myzus persicae (setting [4]) and 0% with Myzus persicae (setting [9]).

As for milbemectin, the “Destruction in % after 1 d” value in the assay on Myzus persicae (setting [6]) came to 0%. The “Destruction in % after 6 d” value in the assay on Tetranychus urticae (0.16 g/ha) is 0%.

With `CSC(=O)O/C(=C(/C#N)c1ccc(Cl)cc1)c1ccccc1C(F)(F)F` [IKA 2002, O-{(E)-2-(4-chlorophenyl)-2-cyano-1-[2-(trifluoromethyl)phenyl]ethenyl}S-methyl thiocarbonate], in the assay with Phaedon cochleariae (setting [1]), the pest or weed control at 20 g/ha came out at 0% and the pest or weed control at 100 g/ha came out at 0%.

Take `N#Cc1nn(-c2c(Cl)cc(C(F)(F)F)cc2Cl)c(N)c1[S+]([O-])C(F)(F)F` (stereo not shown) [Fipronil, fipronil]: the “Destruction in % after 6 d” value with Spodoptera frugiperda (0.8 g/ha) is 17%. Besides, in the assay on Myzus persicae (setting [4]), the pest or weed control at 20 g/ha came out at 30%. Further, the pest or weed control at 0.8 g/ha in the assay on Myzus persicae (setting [9]) is 0%.

Turning to `CCOCn1c(-c2ccc(Cl)cc2)c(C#N)c(Br)c1C(F)(F)F` [Chlorfenapyr, chlorfenapyr], the “Destruction in % after 2 d” value is 67% with Phaedon cochleariae (100 g/ha, Table B third series) and 33% with Spodoptera frugiperda (20 g/ha, Table C third series). Also, in the assay with Myzus persicae (setting [4]), the pest or weed control at 4 g/ha turned out to be 0%.

`CC(C)c1cc(Oc2ccccc2)cc(C(C)C)c1NC(=S)NC(C)(C)C` [Diafenthiuron, diafenthiuron]: in the assay with Myzus persicae (setting [4]), the pest or weed control at 4 g/ha came out at 0%. Also, in the assay on Tetranychus urticae (100 g/ha), the “Destruction in % after 2 d” value was 0% and the “Destruction in % after 6 d” value stood at 0%.

`Cc1nn(C)c(/C(OC(=O)C(C)(C)C)=C(\C#N)c2ccc(C(C)(C)C)cc2)c1C` [Cyenopyrafen, (1E)-2-cyano-2-[4-(1,1-dimethylethyl)phenyl]-1-(1,3,4-trimethyl-1H-pyrazol-5-yl)ethenyl 2,2-dimethylpropanoate]: the pest or weed control at 100 g/ha with Phaedon cochleariae (setting [3]) is 0%. The pest or weed control at 4 g/ha in the assay on Myzus persicae (setting [4]) amounted to 0%. In addition, the “Destruction in % after 2 d” value is 0% with Tetranychus urticae (0.16 g/ha) and 50% in the assay with Tetranychus urticae (0.8 g/ha).

Regarding spinosad, the “Destruction in % after 6 d” value in the assay on Phaedon cochleariae (0.8 g/ha, after 6 d, Table B fourth series) was determined as 50%; in the assay with Myzus persicae (single active substance, 0.8 g/ha, after 6 d), 0%. Also, the “Destruction in % after 2 d” value stood at 0% in the assay on Spodoptera frugiperda (0.8 g/ha, Table C third series) and 20% in the assay with Tetranychus urticae (4 g/ha).

As to `CCc1nn(C)c(C(=O)NCc2ccc(C(C)(C)C)cc2)c1Cl` [tebufenpyrad], the “Destruction in % after 2 d” value was 50% in the assay with Phaedon cochleariae (100 g/ha, Table B third series) and 10% in the assay with Tetranychus urticae (4 g/ha).

Turning to `CC(C)(C)c1ccc(CSc2cnn(C(C)(C)C)c(=O)c2Cl)cc1` [pyridaben], the pest or weed control at 100 g/ha with Phaedon cochleariae (setting [3]) was 0%. Also, the “Destruction in % after 2 d” value in the assay with Tetranychus urticae (20 g/ha) is 50%.

`COC(=O)N(C(=O)N1COC2(C(=O)OC)Cc3cc(Cl)ccc3C2=N1)c1ccc(OC(F)(F)F)cc1` (stereo not shown) [Indoxacarb, indoxacarb]: the pest or weed control at 0.8 g/ha with Phaedon cochleariae (setting [7]) turned out to be 0%. Besides, the pest or weed control at 4 g/ha with Phaedon cochleariae (setting [8]) was determined as 33%. Further, the “Destruction in % after 6 d” value in the assay on Spodoptera frugiperda (0.8 g/ha) turned out to be 33%; in the assay with Spodoptera frugiperda (4 g/ha), 83%. Moreover, the pest or weed control at 20 g/ha in the assay with Myzus persicae (setting [4]) was 0%.

As to `CN(Cc1cnc(Cl)c(F)c1)C1=CC(=O)OC1` [Compound (I-6), 4-{[(6-chloro-5-fluoropyrid-3-yl)methyl](methyl)amino}furan-2(5H)-one], the “Destruction in % after 2 d” value in the assay with Phaedon cochleariae (0.8 g/ha, Table B first series) turned out to be 0%; with Phaedon cochleariae (100 g/ha, Table B third series), 33%; in the assay with Spodoptera frugiperda (4 g/ha, Table C third series), 0%; with Spodoptera frugiperda (20 g/ha, Table C first series), 0%; in the assay with Spodoptera frugiperda (20 g/ha, Table C third series), 0%; in the assay on Tetranychus urticae (0.16 g/ha) it was 0%. For the same compound, the “Destruction in % after 2 d” value in the assay with Tetranychus urticae (20 g/ha) is 0%. Also, the “Destruction in % after 6 d” value in the assay with Phaedon cochleariae (setting [5]) is reported as 0%; with Spodoptera frugiperda (0.8 g/ha), 0%; in the assay with Spodoptera frugiperda (20 g/ha) it was 0%; with Tetranychus urticae (4 g/ha) it was 0%; in the assay with Tetranychus urticae (100 g/ha), 50%. Further, the pest or weed control at 0.16 g/ha in the assay on Phaedon cochleariae (setting [1]) turned out to be 0%; in the assay with Myzus persicae (Myzus persicae, 24 h, single active substance, 0.16 g/ha, after 1 d, read-out: Destruction in % after 1 d), 0%; with Myzus persicae (Myzus persicae, 144 h, single active substance, 0.16 g/ha, after 6 d, read-out: Destruction in % after 6 d), 0%. In addition, the results for the pest or weed control at 0.8 g/ha in the assay on Phaedon cochleariae (setting [1]) and in the assay with Myzus persicae (setting [2]) were 0% and 70%, respectively. In the assay with Phaedon cochleariae (setting [1]), the pest or weed control at 4 g/ha was found to be 0%. In addition, the pest or weed control at 20 g/ha with Phaedon cochleariae (setting [1]) was 0%.

Regarding `CC1=NNC(=O)N(/N=C/c2cccnc2)C1` [Pymetrozine, pymetrozine], the pest or weed control at 100 g/ha with Phaedon cochleariae (setting [3]) stood at 0%. Further, in the assay on Myzus persicae (setting [4]), the pest or weed control at 0.16 g/ha was determined as 0%. The pest or weed control at 0.8 g/ha in the assay with Myzus persicae (setting [9]) was 50%.

Regarding `CNC(=O)c1cc(Cl)cc(C)c1NC(=O)c1cc(Br)nn1-c1ncccc1Cl` [Rynaxapyr, 3-bromo-N-{4-chloro-2-methyl-6-[(methylamino)carbonyl]phenyl}-1-(3-chloropyridin-2-yl)-1H-pyrazole-5-carboxamide], the pest or weed control at 4 g/ha with Phaedon cochleariae (setting [8]) was 50%. Moreover, the “Destruction in % after 6 d” value in the assay with Spodoptera frugiperda (0.16 g/ha) was 33%. In addition, in the assay with Myzus persicae (setting [4]), the pest or weed control at 0.8 g/ha is 0%. In addition, the pest or weed control at 0.032 g/ha in the assay with Myzus persicae (setting [9]) is 0%.

Take `Cc1ccc(/N=C/N(C)/C=N/c2ccc(C)cc2C)c(C)c1` [Amitraz, amitraz]: in the assay with Phaedon cochleariae (setting [3]), the pest or weed control at 100 g/ha was 0%. Besides, in the assay with Myzus persicae (setting [4]), the pest or weed control at 4 g/ha came out at 0%.

In the case of `Cc1nn(C)c(Oc2ccccc2)c1C=NOCc1ccc(C(=O)OC(C)(C)C)cc1` [Fenpyroximate, fenpyroximate], in the assay with Myzus persicae (setting [4]), the pest or weed control at 4 g/ha was determined as 0%. Moreover, the “Destruction in % after 6 d” value in the assay with Tetranychus urticae (4 g/ha) amounted to 0%.

abamectin: the “Destruction in % after 2 d” value is 67% with Phaedon cochleariae (4 g/ha, Table B third series) and 50% in the assay with Tetranychus urticae (0.0064 g/ha). In addition, the “Destruction in % after 1 d” value in the assay on Myzus persicae (setting [6]) worked out at 0%.
